From the kinase profiling compilation of Christmann-Franck et al. (2016)

Tests used:
Test in all cases: KINOMEscan competition binding
Settings in all cases: compound 10.0 µM
AURKA (human) = AURKA (human) (UniProt O14965)
BRSK1 (human) = BRSK1 (human) (UniProt Q8TDC3)
CDK14 (human) = CDK14 (human) (UniProt O94921)
CDK19 (human) = CDK19 (human) (UniProt Q9BWU1)
CDK3 (human) = CDK3 (human) (UniProt Q00526)
CSF1R (human) = CSF1R (human) (UniProt P07333)
CSNK1E (human) = CSNK1E (human) (UniProt P49674)
Sequence of CSNK1E (human) (P49674 whole entry, looked up): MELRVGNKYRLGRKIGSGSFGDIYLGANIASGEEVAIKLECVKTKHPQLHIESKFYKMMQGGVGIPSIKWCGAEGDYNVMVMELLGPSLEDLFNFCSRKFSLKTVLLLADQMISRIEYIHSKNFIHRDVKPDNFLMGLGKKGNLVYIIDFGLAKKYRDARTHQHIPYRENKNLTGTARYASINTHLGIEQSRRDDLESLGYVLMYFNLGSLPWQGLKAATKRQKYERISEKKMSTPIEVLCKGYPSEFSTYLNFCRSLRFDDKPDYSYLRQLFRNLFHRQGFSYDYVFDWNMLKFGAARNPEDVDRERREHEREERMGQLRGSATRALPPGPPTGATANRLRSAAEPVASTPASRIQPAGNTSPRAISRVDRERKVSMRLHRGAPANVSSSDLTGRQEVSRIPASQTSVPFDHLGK

EPHA7 (human) = EPHA7 (human) (UniProt Q15375)
FGFR4 (human) = FGFR4 (human) (UniProt P22455)
Sequence of FGFR4 (human) (P22455 whole entry, looked up): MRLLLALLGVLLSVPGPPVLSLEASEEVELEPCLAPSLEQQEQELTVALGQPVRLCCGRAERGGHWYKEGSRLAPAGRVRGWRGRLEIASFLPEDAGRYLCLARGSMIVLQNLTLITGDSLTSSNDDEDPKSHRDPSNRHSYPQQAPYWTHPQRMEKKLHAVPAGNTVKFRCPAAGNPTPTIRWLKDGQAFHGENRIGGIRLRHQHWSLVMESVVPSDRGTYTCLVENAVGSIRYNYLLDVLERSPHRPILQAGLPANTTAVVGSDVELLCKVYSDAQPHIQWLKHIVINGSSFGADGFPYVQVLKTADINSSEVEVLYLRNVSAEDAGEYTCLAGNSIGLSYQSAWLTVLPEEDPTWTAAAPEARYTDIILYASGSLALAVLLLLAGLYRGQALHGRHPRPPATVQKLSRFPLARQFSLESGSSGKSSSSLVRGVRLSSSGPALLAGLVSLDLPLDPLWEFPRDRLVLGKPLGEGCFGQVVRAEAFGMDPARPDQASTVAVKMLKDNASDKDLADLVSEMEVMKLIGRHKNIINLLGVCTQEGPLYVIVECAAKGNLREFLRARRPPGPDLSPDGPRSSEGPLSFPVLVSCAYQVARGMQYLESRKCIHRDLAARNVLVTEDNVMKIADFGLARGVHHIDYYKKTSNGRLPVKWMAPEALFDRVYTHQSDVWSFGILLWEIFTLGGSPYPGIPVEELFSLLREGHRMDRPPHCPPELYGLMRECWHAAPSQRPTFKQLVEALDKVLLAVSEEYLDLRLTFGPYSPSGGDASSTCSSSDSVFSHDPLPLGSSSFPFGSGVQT

GSK3B (human) = GSK3B (human) (UniProt P49841)
HIPK1 (human) = HIPK1 (human) (UniProt Q86Z02)
[1] = target: JAK1 JH2 pseudokinase (human) (UniProt P23458)
LATS1 (human) = LATS1 (human) (UniProt O95835)
MAP3K12 (human) = MAP3K12 (human) (UniProt Q12852)
MAPK7 (human) = MAPK7 (human) (UniProt Q13164)
Sequence of MAPK7 (human) (Q13164 whole entry, looked up): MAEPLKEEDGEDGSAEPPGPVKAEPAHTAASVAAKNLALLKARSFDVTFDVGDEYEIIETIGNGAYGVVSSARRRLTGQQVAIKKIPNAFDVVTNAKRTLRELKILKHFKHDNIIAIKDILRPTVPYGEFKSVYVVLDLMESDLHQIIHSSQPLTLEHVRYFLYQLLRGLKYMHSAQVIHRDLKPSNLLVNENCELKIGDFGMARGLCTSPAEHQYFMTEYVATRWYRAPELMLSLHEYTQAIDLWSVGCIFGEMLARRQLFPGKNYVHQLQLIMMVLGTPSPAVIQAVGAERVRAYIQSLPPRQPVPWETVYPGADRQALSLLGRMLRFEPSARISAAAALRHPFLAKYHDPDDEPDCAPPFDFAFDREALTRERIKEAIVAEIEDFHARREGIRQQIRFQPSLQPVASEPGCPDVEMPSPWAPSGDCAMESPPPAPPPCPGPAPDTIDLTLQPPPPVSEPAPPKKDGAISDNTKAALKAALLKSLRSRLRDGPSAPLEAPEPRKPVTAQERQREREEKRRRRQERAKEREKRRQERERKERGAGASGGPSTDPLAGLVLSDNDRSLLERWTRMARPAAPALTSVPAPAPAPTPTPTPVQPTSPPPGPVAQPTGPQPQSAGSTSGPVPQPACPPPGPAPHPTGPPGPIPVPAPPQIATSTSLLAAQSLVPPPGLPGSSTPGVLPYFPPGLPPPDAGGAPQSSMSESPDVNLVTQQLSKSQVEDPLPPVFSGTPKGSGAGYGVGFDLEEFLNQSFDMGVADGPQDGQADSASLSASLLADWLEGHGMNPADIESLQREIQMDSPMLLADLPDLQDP

MARK1 (human) = MARK1 (human) (UniProt Q9P0L2)
Sequence of MARK1 (human) (Q9P0L2 whole entry, looked up): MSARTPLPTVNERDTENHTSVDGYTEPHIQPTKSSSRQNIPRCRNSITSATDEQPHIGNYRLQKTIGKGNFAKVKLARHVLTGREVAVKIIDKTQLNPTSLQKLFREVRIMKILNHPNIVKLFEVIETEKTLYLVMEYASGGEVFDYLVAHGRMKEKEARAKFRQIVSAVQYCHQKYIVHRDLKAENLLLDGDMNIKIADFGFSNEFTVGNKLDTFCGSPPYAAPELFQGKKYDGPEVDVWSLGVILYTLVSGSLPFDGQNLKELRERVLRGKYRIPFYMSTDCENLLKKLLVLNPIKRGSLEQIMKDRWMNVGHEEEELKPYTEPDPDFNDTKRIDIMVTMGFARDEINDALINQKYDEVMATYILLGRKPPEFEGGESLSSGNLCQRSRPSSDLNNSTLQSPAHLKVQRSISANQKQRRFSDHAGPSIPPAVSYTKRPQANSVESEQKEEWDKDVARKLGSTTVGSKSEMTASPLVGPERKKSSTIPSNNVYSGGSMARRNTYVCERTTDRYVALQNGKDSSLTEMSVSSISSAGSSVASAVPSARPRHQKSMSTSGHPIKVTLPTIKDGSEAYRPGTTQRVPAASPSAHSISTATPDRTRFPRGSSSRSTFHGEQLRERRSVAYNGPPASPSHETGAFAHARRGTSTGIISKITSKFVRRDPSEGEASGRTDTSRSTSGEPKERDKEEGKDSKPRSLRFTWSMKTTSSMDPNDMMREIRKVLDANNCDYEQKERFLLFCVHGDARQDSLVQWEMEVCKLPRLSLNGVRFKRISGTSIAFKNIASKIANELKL

MARK4 (human) = MARK4 (human) (UniProt Q96L34)
MYLK4 (human) = MYLK4 (human) (UniProt Q86YV6)
PIK3CB (human) = PIK3CB (human) (UniProt P42338)
PIM3 (human) = PIM3 (human) (UniProt Q86V86)
PKN1 (human) = PKN1 (human) (UniProt Q16512)
PLK3 (human) = PLK3 (human) (UniProt Q9H4B4)
PTK2 (human) = PTK2 (human) (UniProt Q05397)
PTK2B (human) = PTK2B (human) (UniProt Q14289)
RET (human) = RET (human) (UniProt P07949)
RIOK1 (human) = RIOK1 (human) (UniProt Q9BRS2)
RIPK1 (human) = RIPK1 (human) (UniProt Q13546)
Sequence of RIPK1 (human) (Q13546 whole entry, looked up): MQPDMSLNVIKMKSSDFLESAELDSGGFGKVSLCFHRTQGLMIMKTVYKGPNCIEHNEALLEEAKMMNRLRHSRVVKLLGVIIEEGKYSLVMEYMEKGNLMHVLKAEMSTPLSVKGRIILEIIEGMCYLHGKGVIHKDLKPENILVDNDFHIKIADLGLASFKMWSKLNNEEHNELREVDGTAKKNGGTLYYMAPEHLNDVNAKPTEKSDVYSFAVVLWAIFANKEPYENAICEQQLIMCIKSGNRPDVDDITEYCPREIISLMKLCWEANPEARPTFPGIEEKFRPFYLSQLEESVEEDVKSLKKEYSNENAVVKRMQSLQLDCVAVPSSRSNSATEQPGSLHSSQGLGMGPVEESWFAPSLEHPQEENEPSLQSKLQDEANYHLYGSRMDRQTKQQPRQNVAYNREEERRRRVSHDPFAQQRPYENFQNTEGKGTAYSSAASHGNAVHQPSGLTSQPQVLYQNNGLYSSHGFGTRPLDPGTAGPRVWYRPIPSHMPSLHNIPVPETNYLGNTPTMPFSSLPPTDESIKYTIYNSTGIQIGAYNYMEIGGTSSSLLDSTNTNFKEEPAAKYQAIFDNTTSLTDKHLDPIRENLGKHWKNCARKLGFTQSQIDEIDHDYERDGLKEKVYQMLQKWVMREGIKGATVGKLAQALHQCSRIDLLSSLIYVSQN

RIPK4 (human) = RIPK4 (human) (UniProt P57078)
RPS6KA2 KD1 (human) = RPS6KA2 KD1 (human) (UniProt Q15349)
Sequence of RPS6KA2 KD1 (human) (Q15349 whole entry, looked up): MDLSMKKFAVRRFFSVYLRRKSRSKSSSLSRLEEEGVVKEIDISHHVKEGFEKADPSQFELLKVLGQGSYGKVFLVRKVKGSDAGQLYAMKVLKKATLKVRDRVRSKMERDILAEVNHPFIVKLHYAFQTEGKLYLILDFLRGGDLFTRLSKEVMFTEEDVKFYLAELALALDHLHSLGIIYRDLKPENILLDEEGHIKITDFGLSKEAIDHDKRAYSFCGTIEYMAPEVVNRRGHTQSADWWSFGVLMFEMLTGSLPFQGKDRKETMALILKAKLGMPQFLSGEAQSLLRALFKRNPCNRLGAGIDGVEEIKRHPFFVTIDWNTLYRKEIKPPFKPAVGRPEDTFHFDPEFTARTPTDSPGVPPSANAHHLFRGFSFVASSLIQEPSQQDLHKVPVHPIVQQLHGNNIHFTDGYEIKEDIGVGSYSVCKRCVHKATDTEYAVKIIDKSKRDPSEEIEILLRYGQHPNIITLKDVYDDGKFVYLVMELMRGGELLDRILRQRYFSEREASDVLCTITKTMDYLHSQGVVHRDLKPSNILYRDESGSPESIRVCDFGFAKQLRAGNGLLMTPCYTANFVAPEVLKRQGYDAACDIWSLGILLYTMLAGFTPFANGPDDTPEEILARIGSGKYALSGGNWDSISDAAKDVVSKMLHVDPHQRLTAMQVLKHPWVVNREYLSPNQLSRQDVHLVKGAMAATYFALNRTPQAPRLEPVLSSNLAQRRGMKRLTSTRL

RPS6KA2 KD2 (human) = RPS6KA2 KD2 (human) (UniProt Q15349)
Sequence of RPS6KA2 KD2 (human) (Q15349 whole entry, looked up): as above

SRC (human) = SRC (human) (UniProt P12931)
STK16 (human) = STK16 (human) (UniProt O75716)
STK24 (human) = STK24 (human) (UniProt Q9Y6E0)
STK25 (human) = STK25 (human) (UniProt O00506)
STK36 (human) = STK36 (human) (UniProt Q9NRP7)
TAOK1 (human) = TAOK1 (human) (UniProt Q7L7X3)
TXK (human) = TXK (human) (UniProt P42681)
BLK (human) = BLK (human) (UniProt P51451)
PKN2 (human) = PKN2 (human) (UniProt Q16513)
SYK (human) = SYK (human) (UniProt P43405)

Sequence of BRSK1 (human) (Q8TDC3 whole entry, looked up): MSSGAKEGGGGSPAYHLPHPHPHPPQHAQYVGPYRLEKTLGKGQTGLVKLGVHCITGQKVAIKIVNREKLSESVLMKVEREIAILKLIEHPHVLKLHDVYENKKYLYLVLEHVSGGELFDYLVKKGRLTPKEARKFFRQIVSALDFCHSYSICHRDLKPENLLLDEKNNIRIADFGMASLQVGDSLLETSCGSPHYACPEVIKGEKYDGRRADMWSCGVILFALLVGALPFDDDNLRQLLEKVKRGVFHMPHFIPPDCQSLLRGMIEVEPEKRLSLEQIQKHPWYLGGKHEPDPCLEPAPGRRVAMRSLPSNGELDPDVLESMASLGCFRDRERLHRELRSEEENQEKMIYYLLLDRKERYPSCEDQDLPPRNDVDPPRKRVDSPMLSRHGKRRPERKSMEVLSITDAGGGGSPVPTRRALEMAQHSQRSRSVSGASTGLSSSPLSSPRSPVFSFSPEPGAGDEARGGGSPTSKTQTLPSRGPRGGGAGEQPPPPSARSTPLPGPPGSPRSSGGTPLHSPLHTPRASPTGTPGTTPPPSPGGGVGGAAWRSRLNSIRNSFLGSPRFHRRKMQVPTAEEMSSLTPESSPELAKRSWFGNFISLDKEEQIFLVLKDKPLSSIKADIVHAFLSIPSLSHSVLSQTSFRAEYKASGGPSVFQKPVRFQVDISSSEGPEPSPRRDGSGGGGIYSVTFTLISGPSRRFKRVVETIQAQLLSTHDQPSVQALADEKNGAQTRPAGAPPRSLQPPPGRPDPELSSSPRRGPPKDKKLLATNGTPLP

| SMILES | kinase still bound, per cent of control (AURKA (human)) | kinase still bound, per cent of control (BRSK1 (human)) | kinase still bound, per cent of control (CDK14 (human)) | kinase still bound, per cent of control (CDK19 (human)) | kinase still bound, per cent of control (CDK3 (human)) | kinase still bound, per cent of control (CSF1R (human)) | kinase still bound, per cent of control (CSNK1E (human)) | kinase still bound, per cent of control (EPHA7 (human)) | kinase still bound, per cent of control (FGFR4 (human)) | kinase still bound, per cent of control (GSK3B (human)) | kinase still bound, per cent of control (HIPK1 (human)) | kinase still bound, per cent of control [1] | kinase still bound, per cent of control (LATS1 (human)) | kinase still bound, per cent of control (MAP3K12 (human)) | kinase still bound, per cent of control (MAPK7 (human)) | kinase still bound, per cent of control (MARK4 (human)) | kinase still bound, per cent of control (MYLK4 (human)) | kinase still bound, per cent of control (PIK3CB (human)) | kinase still bound, per cent of control (PIM3 (human)) | kinase still bound, per cent of control (PKN1 (human)) | further results |
| --- | --- | --- | --- | --- | --- | --- | --- | --- | --- | --- | --- | --- | --- | --- | --- | --- | --- | --- | --- | --- | --- |
| CC[C@@H]1C(=O)N(C)c2cnc(Nc3ccc(C(=O)NC4CCN(C)CC4)cc3OC)nc2N1C1CCCC1 | 100% | 100% | 100% | 100% | 100% | 100% | 100% | 100% | 100% | 100% | 100% | 100% | 100% | 100% | 19% | 100% | 100% | 100% | 100% | 100% | kinase still bound, per cent of control (MARK1 (human)): 100%; kinase still bound, per cent of control (PLK3 (human)): 0%; kinase still bound, per cent of control (PTK2 (human)): 2.4%; kinase still bound, per cent of control (PTK2B (human)): 20%; kinase still bound, per cent of control (RET (human)): 100%; kinase still bound, per cent of control (RIOK1 (human)): 100%; kinase still bound, per cent of control (RIPK1 (human)): 100%; kinase still bound, per cent of control (RIPK4 (human)): 100%; kinase still bound, per cent of control (RPS6KA2 KD1 (human)): 100%; kinase still bound, per cent of control (RPS6KA2 KD2 (human)): 7.2%; kinase still bound, per cent of control (SRC (human)): 100%; kinase still bound, per cent of control (STK16 (human)): 14%; kinase still bound, per cent of control (STK24 (human)): 100%; kinase still bound, per cent of control (STK25 (human)): 100%; kinase still bound, per cent of control (STK36 (human)): 100%; kinase still bound, per cent of control (TAOK1 (human)): 100%; kinase still bound, per cent of control (TXK (human)): 100% |
| OCCCNc1cc(-c2ccnc(Nc3cccc(Cl)c3)n2)ccn1 | 100% | 100% | 100% | 100% | 100% | 100% | 100% | 100% | 100% | 100% | 4.6% | 100% | 100% | 100% | 100% | 100% | 100% | 100% | 100% | 100% | kinase still bound, per cent of control (BLK (human)): 100%; kinase still bound, per cent of control (MARK1 (human)): 100%; kinase still bound, per cent of control (PKN2 (human)): 100%; kinase still bound, per cent of control (PLK3 (human)): 100%; kinase still bound, per cent of control (PTK2 (human)): 100%; kinase still bound, per cent of control (PTK2B (human)): 100%; kinase still bound, per cent of control (RET (human)): 100%; kinase still bound, per cent of control (RIOK1 (human)): 100%; kinase still bound, per cent of control (RIPK1 (human)): 100%; kinase still bound, per cent of control (RIPK4 (human)): 100%; kinase still bound, per cent of control (RPS6KA2 KD1 (human)): 100%; kinase still bound, per cent of control (RPS6KA2 KD2 (human)): 100%; kinase still bound, per cent of control (SRC (human)): 100%; kinase still bound, per cent of control (STK16 (human)): 100%; kinase still bound, per cent of control (STK24 (human)): 100%; kinase still bound, per cent of control (STK25 (human)): 100%; kinase still bound, per cent of control (STK36 (human)): 100%; kinase still bound, per cent of control (SYK (human)): 100%; kinase still bound, per cent of control (TXK (human)): 100% |
| COc1cc(N2CCN(C)CC2)ccc1Nc1nc(N)c(C(=O)c2c(Cl)cccc2Cl)s1 | 100% | 91% | 91% | 93% | 97% | 67% | 56% | 88% | 89% | 100% | 69% | 100% | 100% | 97% | 14% | 82% | 100% | 100% | 100% | 100% | kinase still bound, per cent of control (PKN2 (human)): 98%; kinase still bound, per cent of control (PLK3 (human)): 88%; kinase still bound, per cent of control (PTK2 (human)): 62%; kinase still bound, per cent of control (PTK2B (human)): 42%; kinase still bound, per cent of control (RET (human)): 97%; kinase still bound, per cent of control (RIOK1 (human)): 100%; kinase still bound, per cent of control (RIPK1 (human)): 100%; kinase still bound, per cent of control (RIPK4 (human)): 96%; kinase still bound, per cent of control (RPS6KA2 KD1 (human)): 84%; kinase still bound, per cent of control (RPS6KA2 KD2 (human)): 2.9%; kinase still bound, per cent of control (SRC (human)): 100%; kinase still bound, per cent of control (STK16 (human)): 90%; kinase still bound, per cent of control (STK24 (human)): 77%; kinase still bound, per cent of control (STK25 (human)): 66%; kinase still bound, per cent of control (STK36 (human)): 100%; kinase still bound, per cent of control (SYK (human)): 59%; kinase still bound, per cent of control (TAOK1 (human)): 52%; kinase still bound, per cent of control (TXK (human)): 100% |
| Cc1ccc2nc(NCCN)c3ncc(C)n3c2c1 | 100% | 90% | 100% | 100% | 100% | 16% | 58% | 100% | 100% | 68% | 21% | 47% | 100% | 84% | 0.7% | 100% | 8.8% | 88% | 92% | 92% | kinase still bound, per cent of control (BLK (human)): 100%; kinase still bound, per cent of control (MARK1 (human)): 100%; kinase still bound, per cent of control (PKN2 (human)): 71%; kinase still bound, per cent of control (PLK3 (human)): 94%; kinase still bound, per cent of control (PTK2 (human)): 97%; kinase still bound, per cent of control (PTK2B (human)): 100%; kinase still bound, per cent of control (RET (human)): 100%; kinase still bound, per cent of control (RIOK1 (human)): 100%; kinase still bound, per cent of control (RIPK1 (human)): 100%; kinase still bound, per cent of control (RIPK4 (human)): 100%; kinase still bound, per cent of control (RPS6KA2 KD1 (human)): 100%; kinase still bound, per cent of control (RPS6KA2 KD2 (human)): 97%; kinase still bound, per cent of control (SRC (human)): 100%; kinase still bound, per cent of control (STK16 (human)): 100%; kinase still bound, per cent of control (STK24 (human)): 81%; kinase still bound, per cent of control (STK25 (human)): 79%; kinase still bound, per cent of control (SYK (human)): 100%; kinase still bound, per cent of control (TAOK1 (human)): 66%; kinase still bound, per cent of control (TXK (human)): 90% |
